Experimental data: patent US11547102B2, “Method for screening saltiness enhancer using saltiness receptor” (NISSIN FOODS HOLDINGS CO., LTD., priority 2017, dated 2023)

Experiments:
[1] = target: T1, human TMC4 (hTMC4) (Homo sapiens, UniProt Q7Z404); experiment: whole cell patch clamp assay using HEK293T cells expressing hTMC4; type: cell-based; conditions: 100 μM added to vehicle solution (134 mM NaCl), same cells compared
T1 construct: host or cells: HEK293T
T1 sequence (Q7Z404 1-706 isoform Q7Z404-1): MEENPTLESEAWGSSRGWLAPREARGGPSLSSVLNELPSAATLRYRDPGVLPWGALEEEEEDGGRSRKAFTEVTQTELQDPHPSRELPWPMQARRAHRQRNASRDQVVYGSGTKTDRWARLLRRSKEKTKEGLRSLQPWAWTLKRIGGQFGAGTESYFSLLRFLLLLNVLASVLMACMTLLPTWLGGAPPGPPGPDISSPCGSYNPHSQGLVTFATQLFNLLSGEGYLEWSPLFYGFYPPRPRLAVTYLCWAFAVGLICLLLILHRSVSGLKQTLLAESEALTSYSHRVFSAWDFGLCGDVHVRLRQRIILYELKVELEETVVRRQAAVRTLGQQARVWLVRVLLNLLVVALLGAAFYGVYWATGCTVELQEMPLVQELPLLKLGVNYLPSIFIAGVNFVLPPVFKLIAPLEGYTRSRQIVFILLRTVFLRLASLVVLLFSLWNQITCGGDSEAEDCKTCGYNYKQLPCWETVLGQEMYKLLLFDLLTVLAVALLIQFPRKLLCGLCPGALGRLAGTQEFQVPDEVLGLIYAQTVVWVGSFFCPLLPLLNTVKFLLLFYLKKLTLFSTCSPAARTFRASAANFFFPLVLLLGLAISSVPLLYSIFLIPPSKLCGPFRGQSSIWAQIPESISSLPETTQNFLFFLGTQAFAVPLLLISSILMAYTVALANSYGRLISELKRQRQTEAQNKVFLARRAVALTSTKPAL
Method: In order to observe influence of a known salty taste enhancer on TMC4, the whole cell patch clamp assay (whole cell recording) was performed by using HEK293T cells expressing human TMC4 (hTMC4).
The whole cell patch clamp assay was performed in the same manner as in Example 2 except for the following:
1) HEK293T cells expressing human TMC4 (hTMC4) were used; and
2) a 134 mM NaCl solution was used as a vehicle solution, an extracellular fluid obtained by adding 100 μM arginine hydrochloride (Arg-HCl) as a salty taste enhancer to the vehicle solution, and an extracellular fluid (control not enhancing salty taste) obtained by adding 100 μM sucrose or maltose to the vehicle solution were used. A Cl^− current flowing via TMC4 was compared.
As for the hTMC4, a clone of Accession No. BC025323 was purchased from Dharmacon, and inserted between restriction enzyme EcoR1 site and Not1 site of the plasmid pIRES2-AcGFP1 to create an expression construct in the same manner as that for the mTMC4.

[2] = target: T2, mouse TMC4 (mTMC4) (Mus musculus, UniProt Q7TQ65); experiment: whole cell patch clamp assay using HEK293T cells expressing mTMC4; type: cell-based; conditions: 100 μM added to the 134 mM NaCl buffer, 25° C.
T2 construct: expressed in transfected cells; host or cells: HEK293T
T2 sequence (Q7TQ65 1-694): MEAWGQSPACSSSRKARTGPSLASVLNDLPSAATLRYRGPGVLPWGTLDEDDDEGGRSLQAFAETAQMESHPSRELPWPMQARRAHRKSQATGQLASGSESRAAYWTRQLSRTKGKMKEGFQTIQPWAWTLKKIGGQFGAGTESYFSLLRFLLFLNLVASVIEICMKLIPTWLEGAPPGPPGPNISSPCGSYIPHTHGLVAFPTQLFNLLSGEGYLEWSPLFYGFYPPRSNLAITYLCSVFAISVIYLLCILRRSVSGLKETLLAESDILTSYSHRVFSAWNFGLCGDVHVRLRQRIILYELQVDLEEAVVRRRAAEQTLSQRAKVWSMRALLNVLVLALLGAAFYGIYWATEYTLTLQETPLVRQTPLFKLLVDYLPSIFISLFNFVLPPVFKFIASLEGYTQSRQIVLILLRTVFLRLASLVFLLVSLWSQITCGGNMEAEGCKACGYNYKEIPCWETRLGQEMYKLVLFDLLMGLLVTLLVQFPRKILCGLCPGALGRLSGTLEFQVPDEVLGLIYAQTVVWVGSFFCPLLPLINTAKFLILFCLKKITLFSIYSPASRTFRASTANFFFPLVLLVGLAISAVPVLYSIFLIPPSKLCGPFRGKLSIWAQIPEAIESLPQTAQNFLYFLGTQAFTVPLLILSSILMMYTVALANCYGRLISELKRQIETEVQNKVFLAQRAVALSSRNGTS
Method: In order to check electrophysiological properties of TMC4, a whole cell patch clamp assay (whole cell recording) was performed using HEK293T cells expressing TMC4.
In order to express mouse TMC4 (mTMC4) in HEK293T cells, a plasmid vector pIRES2-AcGFP1 (Clontech Laboratories, Inc.) having a CMV promoter was used. An expression construct in which mTMC4 (sequence of Accession No. NM_181820.2 cloned from cDNA derived from mouse circumvallate papillae epithelium) was inserted between restriction enzyme EcoR1 site and Not1 site of pIRES2-AcGFP1 was transfected at a ratio of 1 μg/35 mm dish. As a transfection reagent, Lipofectamine™ LTX Reagent with PLUS & Reagent™ (Thermo Fisher Scientific K.K.) was used. […]
In the whole cell patch clamp recording using the HEK293T cells, Axopatch 200B (Molecular Devices, LLC.) was used as an amplifier, and digital data was obtained from Digidata 1550 (Axon Instruments, Union City, Calif., USA). The obtained data was analyzed using software pCLAMP 10.2 (Axon Instruments). […]
The measurement was performed with the membrane potential of mTMC4-expressing cells fixed at −60 mV with extracellular fluids successively perfused. A step pulse (400 ms) from −100 mV to +100 mV at intervals of 10 mV was applied to each extracellular fluid to create an I-V curve, and thus, voltage-current characteristics of mTMC4 obtained with different extracellular fluids were measured. […]

Structure (SMILES)	Cl- current flowing via TMC4 [1]	outward Cl- current [2]
OC[C@H]1O[C@@](CO)(O[C@H]2O[C@H](CO)[C@@H](O)[C@H](O)[C@H]2O)[C@@H](O)[C@@H]1O [sucrose]	did not change	
OC[C@H]1O[C@H](O[C@H]2[C@H](O)[C@@H](O)C(O)O[C@@H]2CO)[C@H](O)[C@@H](O)[C@@H]1O (mixture of isomers) [maltose]	did not change	
O=C(O)c1cc([N+](=O)[O-])ccc1NCCCc1ccccc1 [NPPB, 5-Nitro-2-(3-phenylpropylamino) benzoic acid]		completely disappeared
Cl.N=C(N)NCCC[C@H](N)C(=O)O [arginine hydrochloride]	increased	
